# Results as given in patent US5663207A, “Gem-dichlorocyclopropanes as antitumor agents” (priority 1995, dated 1997).
# Entries after “also recorded” stand apart in the source; their conditions may differ. Like-named read-outs stand apart in the source and are kept apart here.
# Key:
# [1] = Stability observed during isolation and storage; format: physicochemical; details: on concentration, drying or storage
# Description: The structures of all compounds were supported by their proton NMR spectra, which were measured on either a Varian EM-360A or XL-300 spectrometer. The spectra are reported in parts per million in CDCl3 unless otherwise noted, with tetramethysilane as the internal standard. Infrared spectra were obtained from KBr pellets on a Beckman Acculab 1 spectrometer and were consistent with the assigned structures. Silica gel (for example, obtained commercially from J. T. Baker) of approximately 40 μm diameter was used for flash chromatography (STILL, W. C., KAHN, M. AND MITRA, A. (1978), "Rapid chromatographic technique for preparative separations with moderate resolutions", Journal of Organic Chemistry, 43, 2923), which was performed at 5-10 psi. Petroleum ether was of bp 30°-60° C. When necessary, solvents or reagents were dried by appropriate methods. Evaporations were carried out in vacuo on a rotary evaporator or under a stream of dry N2. Melting points were taken on a Thomas-Hoover capillary melting point apparatus and are uncorrected. Reaction progress and product purity were monitored by analytical TLC on strips of Eastman Kodak plastic-backed SiO2 60 F254 or Al2 O3 F254. Developed strips were viewed under light of 254 and 365 nm wavelengths. Elemental analyses were done by Midwest Microlab Ltd., Indianapolis, IN. Acceptable elemental results are denoted in Table I by the formula, followed by the elements analyzed. Melting points and yields of all compounds were based on pure samples unless otherwise noted, are listed in Table I. Para-Bromoanisole, p-methoxydeoxybenzoin, anisole, p-methoxybenzaldehyde, and 2,3-bis-(p-methoxyphenyl)-acrylic acid and trans-p-methoxystilbene (the olefin), were purchased from Aldrich & Co. The cyclopropanes 1,1-dichloro-cis-2-(p-hydroxyphenyl)-3-phenylcyclopropane (9), and its trans isomer 1,1-dichloro-trans-2-(p-Hydroxyphenyl)-3phenylcyclopropane (17) were prepared from Compounds 8 & 16, respectively. […] Tamoxifen was obtained from Stuart Pharmaceuticals, Division of ICI Americas, Inc., Wilmington, Del. 19897. MER 25 was obtained from the Merrell Dow Research Institute, Division of Merrell Dow Pharmaceuticals, Inc., Cincinnati, Ohio. Protein Assay Reagent, Pierce Chemical Co., Rockford, Ill. 61105. Diethylstilbestrol, β-estradiol, EDTA, DL-dithiothreitol, Sodium molybdate, and Tris (hydroxymethyl) aminomethane hydrochloride were purchased from Sigma Chemical Co., St. Louis, Mo. 63178.
# Essentially, the intermediate olefin acids (Compounds 6 & 12) were obtained from a mixed Perkin and Knoevenagel-type condensation involving the reaction of p-methoxyaldehyde (Compound 4) with phenylacetic acid (Compound 5), or p-methoxyphenylacetic acid (Compound 11) in triethylamine and acetic anhydride. To prepare cis-p-methoxystilbene (Compound 7) or bis-(p-methoxy)-cis-stilbene (Compound 13). Decarboxylation of 6 & 12 with quinoline (prevents isomerizations; KLEIN, J. AND MEYER, A. Y. (1964), "The decarboxylation of α-cyano-and α-carboxycinnamic acids", Journal of Organic Chemistry, 29, 1038), and copper chromite at elevated temperature provided 7 & 13. High temperature during distillation caused 8% isomerization to the trans-isomer (15), which was isolated by column chromatography. Dichlorocarbene generation used the catalytic phase transfer method (21, 37) (used extensively in our laboratory) of 50% aqueous solution of NaOH, CHCl3 and benzyltriethylammonium chloride (TEBA) as the anion transfer agent. […]
# estrogen receptor [2] = biological target: T1, estrogen receptor (Rattus norvegicus, UniProt P06211); details: relative to estradiol = 100%; Day et al., J. Med. Chem. 34, 842-851 (1991); cited from earlier work
# T1 construct: ovariectomized rat uterine cytosolic estrogen receptor preparation; from tissue; host or cells: uterine cytosol of ovariectomized Sprague-Dawley rats (immature rats from Sasco are named as uterus source, mature ovariectomized rats)
# T1 sequence (P06211 1-600): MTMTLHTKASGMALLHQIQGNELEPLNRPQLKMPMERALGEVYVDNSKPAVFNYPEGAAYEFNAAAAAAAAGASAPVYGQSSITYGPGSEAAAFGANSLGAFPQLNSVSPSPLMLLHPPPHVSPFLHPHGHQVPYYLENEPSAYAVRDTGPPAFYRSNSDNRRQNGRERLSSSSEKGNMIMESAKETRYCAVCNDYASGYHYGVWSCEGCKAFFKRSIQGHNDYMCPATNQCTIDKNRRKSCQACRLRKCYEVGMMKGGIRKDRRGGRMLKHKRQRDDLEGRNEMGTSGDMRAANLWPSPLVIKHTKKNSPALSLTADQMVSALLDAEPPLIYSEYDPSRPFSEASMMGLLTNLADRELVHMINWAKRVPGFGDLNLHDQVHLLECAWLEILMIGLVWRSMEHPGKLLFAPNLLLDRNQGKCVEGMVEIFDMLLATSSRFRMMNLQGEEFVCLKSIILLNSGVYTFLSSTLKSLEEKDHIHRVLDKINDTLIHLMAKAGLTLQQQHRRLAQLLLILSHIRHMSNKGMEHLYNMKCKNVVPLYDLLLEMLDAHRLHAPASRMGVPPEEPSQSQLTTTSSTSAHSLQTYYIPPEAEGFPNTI
# [3] = system: MCF-7 human breast cancer cells; details: cited from earlier work; for MCF-7 Inhibition: 10^-6 M, Day et al., J. Med. Chem. 34, 842-851 (1991)
# estrogen receptor [4] = biological target: T1, estrogen receptor; assay: Receptor binding assay: displacement of [3H]-estradiol from rat uterine cytosol; set-up: species or system rat (Sprague-Dawley); details: relative to estradiol = 100%; average of duplicate determinations minus nonspecific binding
# Excerpt: (§1) The biological evaluation of the test compounds consisted of the in vitro rat cytosolic estradiol receptor binding assay, the in vivo immature mouse uterotrophic (estrogenic) and antiuterotrophic (antiestrogenic) assays, and the in vitro suppression of the proliferation of the ER positive MCF-7 human breast cancer cell line. Estradiol (pure agonist), TAM (agonist in mice and antagonist in MCF-7), MER 25 (pure antagonist) and Analog II (antagonist in mice) were used in the assay as standards.
# (§2) Vital-free immature female Swiss-Webster mice were obtained at 17-19 days of age from Sasco weighing 8-10 g, and were used in the uterotrophic and antiuterotrophic assays. Immature female Sprague-Dawley rats, obtained at 17-19 days of age from Sasco, weighing 28-33 g, were used as sources of uteri for the estradiol receptor binding assay. Animals were housed in wire topped polycarbonate cages at six animals per cage, with the environment controlled at 25° C. and a 12 h light/dark cycle. The animals received a diet of Wayne Lab Blox rodent chow and tap water ad libitum.
# The RBAs of the test compounds were determined by the displacement of [^3 H]-estradiol in vitro, as described previously (DAY, B. W., […], R. A., JAIN, P., PENTO, J. T., MOUSISSIAN, G. K. AND MEYER, K. L. (1991), "Synthesis and biological evaluation of a series of 1,1-dichloro-2,2,3-triarylcyclopropanes as pure antiestrogens", Journal of Medicinal Chemistry, 34, 842; KORENMAN, S. G. (1969), "Comparative binding affinity of estrogens and its relation to estrogenic potency", Steroid, 13, 163). Mature female Sprague-Dawley rats were ovariectomized at least two weeks prior to the receptor binding experiment. Each test compound was assayed at three concentrations in duplicate over a range of 10^-3 -10^-5 M and 10^-6 -10^-8 M for the estradiol standard. The non-specific binding was determined by a parallel incubation of each compound with the addition of diethylstilbestrol to give a final concentration of 2×10^-5 M DES which was sufficient to saturate all the estrogen receptors present in the cytosolic fraction. Specific displacement for each compound was determined by subtraction of nonspecific displacement from total displacement. The [^3 H]-estradioldisplacement curve for each test compound was determined by linear repression analysis and plotted graphically. The relative binding affinity for each compound was calculated (BLISS, C.I. (1967), "The statistics in biology", McGraw Hill, Inc: New York).
# ^a Determined by competitive radiometric binding assay with rat
# uterine cytosol as a source of receptor, [^3 H]estradiol as tracer,
# and dextrancoated charcoal as absorbant for free ligand.
# ^c Binding affinities are expressed relative to that of estradiol =
# 100% (RBA = relative binding affinity) and are the average of duplicate
# determinations minus nonspecific binding.
# The relative binding affinities (RBAs), as determined by the competitive radiometric binding assay and measured by [^3 H]-estradiol displacement from the ovariectomized rat uterine cytosolic estrogen receptor preparation, after subtracting non-specific receptor binding, were calculated for all of the synthesized target compounds, TAM, MER 25, Analog II, and estradiol. The displacement curves were plotted as percent receptor-bound [^3 H]-estrodiol versus concentration of test compounds (not shown) and the receptor binding affinity of each compound is presented in Table II.
# [5] = system: MCF-7 human breast cancer cells; assay: In vitro MCF-7 human breast cancer cell growth inhibition assay; format: cell-based
# Excerpt: as §1
# MCF-7 (estrogen-receptor positive) human breast cancer cells (obtained from the Michigan Cancer Foundation, Detroit, Mich.) were grown at 37° C. in 75 cm^2 tissue culture (T-75) flasks, as monolayer cultures in RPMI 1640 phenol red-free media supplemented with 2 mM L-glutamine, gentamicin (50 μg/mL), penicillin (100 units/mL), streptomycin (100 μg/mL ) and calf serum (5%). Cultures were grown in an incubator 37° C. in a humid 5% CO2 atmosphere, and fed on alternate days. Expotential growth was maintained by subculturing at eight day intervals when the cells per T-75 flask reached 10 to 12×10^6 cells. Cells were trypsinized, washed and plated in multiwell plates at a density of 5×10^4 cells/well in 3 mL of RPMI 1640 media. The cells were allowed to attach and were in logarithmic growth when the test compounds were added. The test compounds (10^-6 M) in the presence or absence of a 10-fold lower dose of estradiol were dissolved in a polyethylene glycol 400: ethanol (55:45) mixture and added in the culture media in duplicate. Control samples received vehicle alone at the same concentration used in the treatment groups. The final concentration of the vehicle mixture was 0.1% of the incubation media. Cell growth was measured on alternate days using the hemocytometric trypan blue exclusion method. Percent inhibition of MCF-7 cells was calculated as the ratio of the control mean cell count per well minus the treatment group mean cell count per well to the control mean cell count per well, multiplied by 100.
# ^b % MCF7 inhibition was calculated as follows: […]
# Thirteen compounds, Analog II, TAM, and MER 25 were tested for their antiproliferative activity in the MCF-7 human breast cancer cell line (Table II). Compounds were tested at a concentration of 10^-6 M in the presence or absence of 10^-7 M estradiol to assess their ability to alter the growth of the calls (Table II). The 10^-6 M concentration was selected since it was reported that the inhibition of the MCF-7 cells by antiestrogens and TAM occurred either at that concentration or less, and were both selective and estrogen receptor specific. Concentrations of antiestrogens greater than 5×10^-6 M were reported to have nonspecific cytotoxic effects (BRIAND, P. AND […], A. E. (1984), "Effect of estrogen and antiestrogen on the human breast cancer cell line MCF-7 adapted to growth at low serum concentration", Cancer Research, 44, 1114).
# [6] = system: Immature Swiss-Webster female mice (uterine weight); assay: Uterotrophic assay for estrogenic activity in immature mice; format: in vivo, mouse (Swiss-Webster); details: doses of 5, 25 and 100 μg (total dose)
# Excerpt: The biological evaluation of the test compounds consisted of the in vitro rat cytosolic estradiol receptor binding assay, the in vivo immature mouse uterotrophic (estrogenic) and antiuterotrophic (antiestrogenic) assays, and the in vitro suppression of the proliferation of the ER positive MCF-7 human breast cancer cell line.
# as §2
# Immature Swiss-Webster female mice (8-15 g) at 17-19 days of age were used. Estradiol was used in the dosage range of […] (total dose) as the assay standard. Each cyclopropyl analogue was examined at doses of 5, 25, and 100 μg (total dose). […] Estrogenic activity was measured as an increase in uterine weight produced by each test compound.
smiles,measurement,setting,value
"Oc1ccc([C@H]2[C@@H](c3ccccc3)C2(Cl)Cl)cc1 (relative stereo) [Compound 9, 1,1-dichloro-cis-2-(p-hydroxyphenyl)-3-phenylcyclopropane]",stability (in words),[1],instability to air and light; also recorded: underwent gradual color changes when concentrated
"Oc1ccc([C@H]2[C@H](c3ccccc3)C2(Cl)Cl)cc1 (relative stereo) [Compound 17, 1,1-dichloro-trans-2-(p-hydroxyphenyl)-3-phenylcyclopropane]",stability (in words),[1],underwent gradual color changes when concentrated
ClC1(Cl)[C@H](c2ccccc2)[C@@H]1c1ccccc1 [Analog II],RBA (relative binding affinity),estrogen receptor [2],0.01%
same,MCF-7 Inhibition,[3],20.4%
Oc1ccc(C2(c3ccc(O)cc3)C(c3ccccc3)C2(Cl)Cl)cc1 (centres unmarked) [Compound 36],stability (in words),[1],Drying of phenol 36 at a high temperature resulted in the formation of an indene
"CC(=O)Oc1ccc(C2(c3ccc(OC(C)=O)cc3)C(c3ccccc3)C2(Cl)Cl)cc1 (centres unmarked) [Compound 37, 1,1-Dichloro-2,2-bis-(p-acetoxyphenyl)-3-phenylcyclopropane]",RBA (relative binding affinity),estrogen receptor [4],0.08%
same,effect on MCF-7 cell growth (in words),[5]; 10^-6 M,did not alter cell growth
same,inhibition at 1 µM,"[5]; Homo sapiens, MCF7, read-out: MCF-7 Inhibition",< 10%
same,"uterine weight response (estrogenic activity, in words)",[6],well below the control group
CC/C(=C(\c1ccccc1)c1ccc(OCCN(C)C)cc1)c1ccccc1 [Tamoxifen],MCF-7 Inhibition,[3],25.6%
same,concentration at which inhibition of MCF-7 cells occurred,[3]; reported as selective and estrogen receptor specific,≤ 10^-6 M
